Test results reported in article PMC9223267, “Serine hydroxymethyltransferase as a potential target of antibacterial agents acting synergistically with one-carbon metabolism-related inhibitors” (Communications Biology, 2022).
Values joined by “and” are separate entries in the source; they are usually repeats but may differ in a detail not shown here. Equal values may be shown once. Read-outs that look alike come from different tables or passages of the source.

Assays:
[1] = tested on: E. faecium; assay: Antibacterial activity evaluation (turbidity, OD600); format: cell-based, Enterococcus faecium (JCM5804); conditions: Enterococcus faecium
Protocol: (§1) E. faecium and E. faecalis were diluted to turbidity equivalents that matched 1.0 McFarland (McF) standard in distilled water (S. aureus and E. coli were also diluted to 0.5 McF), and additionally diluted 1:200 in Mueller–Hinton (MH) broth. The designated concentrations of the tested compounds were prepared by ten-fold serial dilutions directly in 96-well microtiter plates (IWAKI, Shizuoka, Japan), as previously described. […] The other compounds were serially diluted from 20 μM downwards (final concentration, 10 μM). […] Positive control wells included bacteria without any compound, and the negative control wells only contained MH broth. […] The optical density at 600 nm (OD600) was measured using a GloMax microtiter plate reader (Promega, WI, USA), and the EC50 values of each test compound and standard error were calculated by Microsoft Excel function, AVERAGE and STDEV/SQRT.

[2] = tested on: E. faecalis; assay: as above; format: cell-based, Enterococcus faecalis (JCM7783); conditions: Enterococcus faecalis, E. faecalis JCM7783
Protocol: as §1

[3] = tested on: S. aureus; assay: as above; format: cell-based, Staphylococcus aureus (ATCC29213); conditions: Staphylococcus aureus, S. aureus ATCC29213
Protocol: as §1

[4] = tested on: E. coli; assay: as above; format: cell-based, Escherichia coli (ATCC25922); conditions: Escherichia coli, E. coli ATCC25922
Protocol: as §1

[5] = tested on: E. faecium; assay: Antibacterial assay with an excess concentration of biomolecules (Ser, Gly, inosine, dT, FA); format: cell-based, Enterococcus faecium (JCM5804); conditions: Enterococcus faecium
Protocol: as §1
The ratio of the control EC50 (no competitors added) to the experimental EC50 (competitors added) was calculated for each test substance.

[6] = tested on: efmSHMT; format: binding, Enterococcus faecium; conditions: DSF; final drug concentration 50 μM
Protocol: Protein samples were prepared as 20 μL aliquots containing 0.1 mg/mL protein (efmSHMT/ecSHMT), 1 μL of the ligand in DMSO (final drug concentration, 50 μM) and 2% or 4% SYPRO Orange (Invitrogen, MA, USA). […] Melting points were evaluated as the half-point of the maximum intensity of each curve.

[7] = molecular target: efmSHMT (Enterococcus faecium, UniProt I3U4H4, M1V); assay: biochemical; format: binding; conditions: 5 μM efmSHMT, 10 mM Gly and 100 μM Ser
efmSHMT (Enterococcus faecium, UniProt I3U4H4, M1V), sequence (I3U4H4 whole entry M1V): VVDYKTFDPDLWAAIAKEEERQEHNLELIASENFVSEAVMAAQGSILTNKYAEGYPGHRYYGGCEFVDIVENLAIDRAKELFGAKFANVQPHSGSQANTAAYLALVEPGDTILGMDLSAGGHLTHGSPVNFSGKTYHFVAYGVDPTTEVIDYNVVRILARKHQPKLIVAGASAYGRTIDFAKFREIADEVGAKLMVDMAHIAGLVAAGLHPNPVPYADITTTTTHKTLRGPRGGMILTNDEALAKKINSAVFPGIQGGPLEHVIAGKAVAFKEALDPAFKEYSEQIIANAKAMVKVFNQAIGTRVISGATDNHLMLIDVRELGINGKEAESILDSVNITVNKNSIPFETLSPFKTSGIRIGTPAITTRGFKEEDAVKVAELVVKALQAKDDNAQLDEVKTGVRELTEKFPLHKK
Protocol: After adding Me-THF, the efmSHMT solution was incubated for 30 min at room temperature. The optical density at 500 and 600 nm (OD500 and OD600) were then measured using a nanodrop spectrophotometer[24],[25]. OD600 was used as the background. After detection, each concentration of inhibitor was added to the efmSHMT solution and incubated for 30 min at room temperature. OD500 and OD600 were measured. The relative OD500 intensity was calculated as relative OD500 = (OD500 – OD600)/(MAXOD500 – OD600), where MAXOD500 is the average OD500 value in the presence of 1000, 2000 and 4000 μM Me-THF without inhibitors. […] Here, IC50 is the concentration of inhibitor added to the efmSHMT solution and [Me-THF] is the EC50 in the presence of the inhibitor concentration. [EC50 without inhibitor] is the EC50 of Me-THF in the absence of the inhibitor.

[8] = tested on: E. faecium; assay: Bacterial viability assay (Microbial Viability Assay Kit-WST, OD450); format: cell-based, Enterococcus faecium
Protocol: Living E. faecium were determined using the Microbial Viability Assay Kit-WST (DOJINDO, Tokyo, Japan). […] Positive control wells included bacteria seeded into MH broth without compounds, and the negative control wells contained MH broth only. […] Five microlitres of the colouring reagent were added to each well of the 96-well plate every 2 h after starting incubation with each compound.

[9] = tested on: Caski cells; assay: Cell cytotoxicity assay (Cell Counting Kit-8, 5 days); format: cell-based, human; conditions: with each cell line (Caski, Hep-2 and Calu-3)
Protocol: After serial dilution, 100 μL of FBS-containing medium including the cells was added to each well of the plate. […] All CC50 determining assays were conducted in duplicate or triplicate[39],[40].

[10] = E. faecium JCM5804, read-out: EC50
[11] = E. faecium JCM5804, read-out: pEC50 ± S.E. (converted)
[12] = read-out: pEC50 ± S.E. (converted)
[13] = JCM5804, E. faecium JCM5804, 1 mM Inosine, read-out: EC50
[14] = JCM5804, E. faecium JCM5804, 1 mM Inosine, read-out: pEC50 ± S.E. (converted)
[15] = JCM5804, E. faecium JCM5804, 1 mM deoxythymidine, read-out: EC50
[16] = JCM5804, E. faecium JCM5804, 1 mM deoxythymidine, read-out: pEC50 ± S.E. (converted)
[17] = JCM5804, E. faecium JCM5804, 10 mM Glycine, read-out: EC50
[18] = JCM5804, E. faecium JCM5804, 10 mM Glycine, read-out: pEC50 ± S.E. (converted)
[19] = JCM5804, E. faecium JCM5804, 100 mM Serine, read-out: EC50
[20] = JCM5804, E. faecium JCM5804, 100 mM Serine, read-out: pEC50 ± S.E. (converted)
[21] = JCM5804, E. faecium JCM5804, 0.1 M folate, read-out: EC50
[22] = JCM5804, E. faecium JCM5804, 0.1 M folate, read-out: pEC50 ± S.E. (converted)

Structure (SMILES)	EC50 [1, 10] [nM]	EC50 [1, 11] [nM]	EC50 ([2]; read-out: EC50) [nM]	EC50 [2, 12] [nM]	EC50 ([3]; read-out: EC50) [nM]	EC50 [3, 12] [nM]	EC50 ([4]; read-out: EC50) [nM]	EC50 [4, 12] [nM]	EC50 [5, 13] [nM]	EC50 [5, 14] [nM]	EC50 [5, 15] [nM]	EC50 [5, 16] [nM]	EC50 [5, 17] [nM]	EC50 [5, 18] [nM]	EC50 [5, 19] [nM]	EC50 [5, 20] [nM]	EC50 [5, 21] [nM]	EC50 [5, 22] [nM]	other results
O=c1[nH]c(=O)n([C@@H]2O[C@H](CO)[C@@H](O)[C@H]2O)cc1F [5-FUrd, 5-fluorouridine]	73	79.4	380	398	30	31.6	10000	10000	720	794	21000	20000	65	79.4	98	100	270	251	
O=c1[nH]c(=O)n([C@H]2C[C@H](O)[C@@H](CO)O2)cc1F [5-FdU, 5-fluoro-2′-deoxyuridine]	29	31.6	310	316	8.9	7.94	10000	10000	24	25.1	> 100000	> 100000	6.4	6.31	32	31.6	190	200	
Nc1nc2[nH]cc(CCc3ccc(C(=O)N[C@@H](CCC(=O)O)C(=O)O)cc3)c2c(=O)[nH]1 [PMX, pemetrexed]			> 100000	> 100000	> 100000	> 100000	> 100000	> 100000	0.074	0.0794	> 100000	> 100000	0.062	0.0631	0.25	0.251	1800	2000	EC50 ([1]; JCM5804, E. faecium JCM5804, read-out: EC50): 0.052 nM; EC50 ([1]; JCM5804, E. faecium JCM5804, read-out: pEC50 ± S.E. (converted)): 0.0501 nM; ΔTm (thermal stability of efmSHMT) [6]: 0.9 °C; Ki ([7]; Ki, Cheng-Prusoff): 117000 nM; Ki ([7]; pKi ± pSE): 126000 nM
Cc1nc2ccc(CN(C)c3ccc(C(=O)N[C@@H](CCC(=O)O)C(=O)O)s3)cc2c(=O)[nH]1 [RTX, raltitrexed]	13	12.6	> 100000	> 100000	> 100000	> 100000	> 100000	> 100000	8.2	7.94	> 100000	> 100000	10	10	14	12.6	> 100000	> 100000	
COc1cc(Cc2cnc(N)nc2N)cc(OC)c1OC [TMP, trimethoprim]	2.8	2.51	270	251	290	316	170	158		2.51	54000	50100	2.1	2	3.3	3.16	41	50.1	Relative bacterial viability ([8]; 2 nM, 0 hours, single values): 0.02108 and 0.02214 and 0.02363 and 0.02319 and 0.01396 and 0.01461 and 0.0211 and 0.02201; Relative bacterial viability ([8]; 2 nM, 2 hours, single values): 0.03256 and 0.03276 and 0.0358 and 0.03793 and 0.02817 and 0.0276 and 0.03152 and 0.02983; Relative bacterial viability ([8]; 2 nM, 8 hours, single values): 0.6778 and 0.6938 and 0.7383 and 0.6754 and 0.6268 and 0.6594 and 0.6905 and 0.6243; Relative bacterial viability ([8]; 2 nM, 10 hours, single values): 0.7078 and 0.7215 and 0.7487 and 0.6774; Relative bacterial viability ([8]; 2 nM, 12 hours, single values): 0.7931 and 0.8524 and 0.8435 and 0.6543 and 0.7061 and 0.7294 and 0.7396 and 0.7126; Relative bacterial viability ([8]; 2 nM, 14 hours, single values): 0.8722 and 0.7867 and 0.9195 and 0.9126 and 0.8033 and 0.8796 and 0.8243 and 0.8853; Relative bacterial viability ([8]; 20 nM, 0 hours, single values): 0.02896 and 0.02213 and 0.01772 and 0.01904 and 0.02117 and 0.02218 and 0.02462 and 0.0192; Relative bacterial viability ([8]; 20 nM, 2 hours, single values): 0.03873 and 0.03054 and 0.0347 and 0.03215 and 0.02983 and 0.02843 and 0.03279 and 0.02955; Relative bacterial viability ([8]; 20 nM, 4 hours, single values): 0.0705 and 0.06896 and 0.0607 and 0.07039 and 0.05304 and 0.06167 and 0.06352 and 0.06901; Relative bacterial viability ([8]; 20 nM, 6 hours, single values): 0.09036 and 0.1064 and 0.1059 and 0.1127 and 0.1209 and 0.1443 and 0.152 and 0.1417; Relative bacterial viability ([8]; 20 nM, 8 hours, single values): 0.1279 and 0.1203 and 0.1189 and 0.109 and 0.09529 and 0.09698 and 0.1178 and 0.11; Relative bacterial viability ([8]; 20 nM, 10 hours, single values): 0.1127 and 0.1159 and 0.1045 and 0.09171 and 0.08771 and 0.09868 and 0.1124 and 0.1197; Relative bacterial viability ([8]; 20 nM, 12 hours, single values): 0.09851 and 0.09831 and 0.1104 and 0.1131 and 0.09658 and 0.1085 and 0.1167 and 0.1091; EC50 ([8]; Enterococcus faecium, relative bacterial viability after 14 h incubation): 8.8 nM; selectivity index (S.I.): CC50 against each cell line / EC50 against E. faecium [9]: high bacterial selectivity
CN[C@H](CC(C)C)C(=O)N[C@H]1C(=O)N[C@@H](CC(N)=O)C(=O)N[C@H]2C(=O)N[C@H]3C(=O)N[C@H](C(=O)N[C@H](C(=O)O)c4cc(O)cc(O)c4-c4cc3ccc4O)[C@H](O)c3ccc(c(Cl)c3)Oc3cc2cc(c3O[C@@H]2O[C@H](CO)[C@@H](O)[C@H](O)[C@H]2O[C@H]2C[C@](C)(N)[C@H](O)[C@H](C)O2)Oc2ccc(cc2Cl)[C@H]1O [VCM, vancomycin]																			EC50 ([1]; VCM in μg/mL, E. faecium JCM5804, read-out: EC50): 0.31 µg/mL; EC50 ([2]; VCM in μg/mL, read-out: EC50): 3.2 µg/mL; EC50 ([3]; VCM in μg/mL, read-out: EC50): 0.36 µg/mL; EC50 ([4]; VCM in μg/mL, read-out: EC50): > 100 µg/mL; EC50 [5]: 0.29 µg/mL; EC50 ([5]; VCM in μg/mL, 1 mM Inosine, read-out: EC50): 0.34 µg/mL; EC50 ([5]; VCM in μg/mL, 1 mM deoxythymidine, read-out: EC50): 0.42 µg/mL; EC50 ([5]; VCM in μg/mL, 100 mM Serine, read-out: EC50): 0.3 µg/mL; EC50 ([5]; VCM in μg/mL, 0.1 M folate, read-out: EC50): 0.31 µg/mL
NCC(=O)O [glycine]																			Relative bacterial viability ([8]; 50 mM glycine (Supplementary Fig. S2)): ~ 0.75; Relative bacterial viability ([8]; 100 mM glycine (Supplementary Fig. S2)): ~0.40
